This note sets out measurements from BindingDB's records for doi:10.1016/s0028-3908(05)80009-7 (Universit&Eacute, 1994).

Where a SMILES comes first, the peptide text is derived from it. [ ]: non-standard residue; d: D form. ξ: configuration not given here. Ile(3ξ) = CCC(C)[C@H](N)C(=O)O

This assay addresses T1, Pituitary adenylate cyclase-activating polypeptide (Rattus norvegicus, UniProt P13589).
T1 sequence (P13589 whole entry): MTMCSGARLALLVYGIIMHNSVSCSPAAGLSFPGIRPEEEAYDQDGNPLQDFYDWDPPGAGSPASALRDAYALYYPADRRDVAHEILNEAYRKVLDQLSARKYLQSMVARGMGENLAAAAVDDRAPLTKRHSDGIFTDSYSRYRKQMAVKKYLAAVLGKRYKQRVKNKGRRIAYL
A word on the Ki: it is a dissociation constant, usually derived from enzyme kinetics or from competition with a known ligand. Take `CNC(=O)[C@H](Cc1ccc(O)cc1)NC(=O)[C@H](CCCN=C(N)N)NC(=O)[C@H](CCCCN)NC(=O)CNC(=O)[C@H](CC(C)C)NC(=O)[C@@H](NC(=O)[C@H](C)NC(=O)[C@H](C)NC(=O)[C@H](CC(C)C)NC(=O)[C@H](Cc1ccc(O)cc1)NC(=O)[C@H](CCCCN)NC(=O)[C@H](CCCCN)NC(=O)[C@@H](NC(=O)[C@H](C)NC(=O)[C@H](CCSC)NC(=O)[C@H](CCC(N)=O)NC(=O)[C@H](CCCCN)NC(=O)[C@H](CCCN=C(N)N)NC(=O)[C@H](Cc1ccc(O)cc1)NC(=O)[C@H](CCCN=C(N)N)NC(=O)[C@H](CO)NC(=O)[C@H](Cc1ccc(O)cc1)NC(=O)[C@H](CO)NC(=O)[C@H](CC(=O)O)NC(=O)[C@@H](NC(=O)[C@@H](N)Cc1ccccc1)[C@@H](C)O)C(C)C)C(C)C` [PACAP(6-31)] (H-FTDSYSRYRKQMAVKKYLAAVLGKRY-NHMe): affinity was put at a Ki of 3 nM.

Regarding `CSCC[C@H](NC(=O)[C@H](CCC(N)=O)NC(=O)[C@H](CCCCN)NC(=O)[C@H](CCCNC(=N)N)NC(=O)[C@H](Cc1ccc(O)cc1)NC(=O)[C@H](CCCNC(=N)N)NC(=O)[C@H](CO)NC(=O)[C@H](Cc1ccc(O)cc1)NC(=O)[C@H](CO)NC(=O)[C@H](CC(=O)O)NC(=O)[C@@H](NC(=O)[C@@H](N)Cc1ccccc1)[C@@H](C)O)C(=O)N[C@@H](C)C(=O)N[C@H](C(=O)N[C@@H](CCCCN)C(=O)N[C@@H](CCCCN)C(=O)N[C@@H](Cc1ccc(O)cc1)C(=O)N[C@@H](CC(C)C)C(=O)N[C@@H](C)C(=O)N[C@@H](C)C(=O)N[C@H](C(=O)N[C@@H](CC(C)C)C(=O)NCC(=O)N[C@@H](CCCCN)C(=O)N[C@@H](CCCNC(=N)N)C(=O)N[C@@H](Cc1ccc(O)cc1)C(=O)N[C@@H](CCCCN)C(=O)N[C@@H](CCC(N)=O)C(=O)N[C@@H](CCCNC(=N)N)C(=O)N[C@H](C(=O)N[C@@H](CCCCN)C(=O)N[C@@H](CC(N)=O)C(=O)N[C@@H](CCCCN)C(N)=O)C(C)C)C(C)C)C(C)C`, the inhibition constant Ki came out at 2 nM.

As for `CC[C@H](C)[C@H](NC(=O)CNC(=O)[C@H](CC(=O)O)NC(=O)[C@H](CCCN=C(N)N)NC(=O)[C@@H](N)Cc1cnc[nH]1)C(=O)N[C@@H](Cc1ccccc1)C(=O)N[C@H](C(=O)N[C@@H](CC(=O)O)C(=O)N[C@@H](CO)C(=O)N[C@@H](Cc1ccc(O)cc1)C(=O)N[C@@H](CO)C(=O)N[C@@H](CCCN=C(N)N)C(=O)N[C@@H](Cc1ccc(O)cc1)C(=O)N[C@@H](CCCN=C(N)N)C(=O)N[C@@H](CCCCN)C(=O)N[C@@H](CCC(N)=O)C(=O)N[C@@H](CCSC)C(=O)N[C@@H](C)C(=O)N[C@H](C(=O)N[C@@H](CCCCN)C(=O)N[C@@H](CCCCN)C(=O)N[C@@H](Cc1ccc(O)cc1)C(=O)N[C@@H](CC(C)C)C(=O)N[C@@H](C)C(=O)N[C@@H](C)C(=O)N[C@H](C(=O)N[C@@H](CC(C)C)C(N)=O)C(C)C)C(C)C)[C@@H](C)O` [[Arg2]PACAP(1-27)], the affinity, expressed as Ki, was 1000 nM.

Take `CC[C@H](C)[C@H](NC(=O)CNC(=O)[C@H](CC(=O)O)NC(=O)[C@H](CO)NC(=O)[C@@H](N)Cc1ccccc1)C(=O)N[C@@H](Cc1ccccc1)C(=O)N[C@H](C(=O)N[C@@H](CC(=O)O)C(=O)N[C@@H](CO)C(=O)N[C@@H](Cc1ccc(O)cc1)C(=O)N[C@@H](CO)C(=O)N[C@@H](CCCN=C(N)N)C(=O)N[C@@H](Cc1ccc(O)cc1)C(=O)N[C@@H](CCCN=C(N)N)C(=O)N[C@@H](CCCCN)C(=O)N[C@@H](CCC(N)=O)C(=O)N[C@@H](CCSC)C(=O)N[C@@H](C)C(=O)N[C@H](C(=O)N[C@@H](CCCCN)C(=O)N[C@@H](CCCCN)C(=O)N[C@@H](Cc1ccc(O)cc1)C(=O)N[C@@H](CC(C)C)C(=O)N[C@@H](C)C(=O)N[C@@H](C)C(=O)N[C@H](C(=O)N[C@@H](CC(C)C)C(N)=O)C(C)C)C(C)C)[C@@H](C)O` [[Phe1]PACAP(1-27)]: the Ki worked out at 600 nM.

In the case of `CC[C@H](C)[C@H](NC(=O)CNC(=O)[C@H](CC(=O)O)NC(=O)[C@H](C)NC(=O)[C@@H](N)Cc1cnc[nH]1)C(=O)N[C@@H](Cc1ccccc1)C(=O)N[C@H](C(=O)N[C@@H](CC(=O)O)C(=O)N[C@@H](CO)C(=O)N[C@@H](Cc1ccc(O)cc1)C(=O)N[C@@H](CO)C(=O)N[C@@H](CCCNC(=N)N)C(=O)N[C@@H](Cc1ccc(O)cc1)C(=O)N[C@@H](CCCNC(=N)N)C(=O)N[C@@H](CCCCN)C(=O)N[C@@H](CCC(N)=O)C(=O)N[C@@H](CCSC)C(=O)N[C@@H](C)C(=O)N[C@H](C(=O)N[C@@H](CCCCN)C(=O)N[C@@H](CCCCN)C(=O)N[C@@H](Cc1ccc(O)cc1)C(=O)N[C@@H](CC(C)C)C(=O)N[C@@H](C)C(=O)N[C@@H](C)C(=O)N[C@H](C(=O)N[C@@H](CC(C)C)C(=O)NCC(=O)N[C@@H](CCCCN)C(=O)N[C@@H](CCCNC(=N)N)C(=O)N[C@@H](Cc1ccc(O)cc1)C(=O)N[C@@H](CCCCN)C(=O)N[C@@H](CCC(N)=O)C(=O)N[C@@H](CCCNC(=N)N)C(=O)N[C@H](C(=O)N[C@@H](CCCCN)C(=O)N[C@@H](CC(N)=O)C(=O)N[C@@H](CCCCN)C(N)=O)C(C)C)C(C)C)C(C)C)[C@@H](C)O`, the affinity corresponds to a Ki of 0.5 nM.

With `CC[C@H](C)[C@H](NC(=O)CNC(=O)[C@H](CC(=O)O)NC(=O)[C@H](CO)NC(=O)[C@H](Cc1cnc[nH]1)NC(C)=O)C(=O)N[C@@H](Cc1ccccc1)C(=O)N[C@H](C(=O)N[C@@H](CC(=O)O)C(=O)N[C@@H](CO)C(=O)N[C@@H](Cc1ccc(O)cc1)C(=O)N[C@@H](CO)C(=O)N[C@@H](CCCNC(=N)N)C(=O)N[C@@H](Cc1ccc(O)cc1)C(=O)N[C@@H](CCCNC(=N)N)C(=O)N[C@@H](CCCCN)C(=O)N[C@@H](CCC(N)=O)C(=O)N[C@@H](CCSC)C(=O)N[C@@H](C)C(=O)N[C@H](C(=O)N[C@@H](CCCCN)C(=O)N[C@@H](CCCCN)C(=O)N[C@@H](Cc1ccc(O)cc1)C(=O)N[C@@H](CC(C)C)C(=O)N[C@@H](C)C(=O)N[C@@H](C)C(=O)N[C@H](C(=O)N[C@@H](CC(C)C)C(N)=O)C(C)C)C(C)C)[C@@H](C)O` [[AcHis1]PACAP(1-27)], the Ki came to 1 nM.

Regarding “H-YSRYRKQMAVKKYLAAVLGKRYKQRVKNK-NH2 [PACAP(10-38)]”, the Ki worked out at 90 nM.

In turn, `CCC(C)[C@H](NC(=O)CNC(=O)[C@@H](N)CC(=O)O)C(=O)N[C@@H](Cc1ccccc1)C(=O)N[C@H](C(=O)N[C@@H](CC(=O)O)C(=O)N[C@@H](CO)C(=O)N[C@@H](Cc1ccc(O)cc1)C(=O)N[C@@H](CO)C(=O)N[C@@H](CCCN=C(N)N)C(=O)N[C@@H](Cc1ccc(O)cc1)C(=O)N[C@@H](CCCN=C(N)N)C(=O)N[C@@H](CCCCN)C(=O)N[C@@H](CCC(N)=O)C(=O)N[C@@H](CCSC)C(=O)N[C@@H](C)C(=O)N[C@H](C(=O)N[C@@H](CCCCN)C(=O)N[C@@H](CCCCN)C(=O)N[C@@H](Cc1ccc(O)cc1)C(=O)N[C@@H](CC(C)C)C(=O)N[C@@H](C)C(=O)N[C@@H](C)C(=O)N[C@H](C(=O)N[C@@H](CC(C)C)C(=O)NCC(=O)N[C@@H](CCCCN)C(=O)N[C@@H](CCCN=C(N)N)C(=O)N[C@@H](Cc1ccc(O)cc1)C(=O)N[C@@H](CCCCN)C(=O)N[C@@H](CCC(N)=O)C(=O)N[C@@H](CCCN=C(N)N)C(=O)N[C@H](C(=O)N[C@@H](CCCCN)C(=O)N[C@@H](CC(N)=O)C(=O)N[C@@H](CCCCN)C(N)=O)C(C)C)C(C)C)C(C)C)[C@@H](C)O` (stereo partly drawn) [PACAP(3-38)] (H-DG[Ile(3ξ)]FTDSYSRYRKQMAVKKYLAAVLGKRYKQRVKNK-NH2) yielded a Ki of 10 nM.

In the case of “H-FTDSYSRYRKQMAVKKYLAAVLGKRYKQRV-NH2 [PACAP(6-35)]”, the Ki stood at 300 nM.

The molecule H-SYSRYRKQMAVKKYLAAVL-NH2 [PACAP(9-27)] returned a Ki of 2000 nM.

With “H-SRYRKQMAVKKYLAAVLGKRYKQRVKNK-NH2 [PACAP(11-38)]”, the inhibition constant Ki came to 100 nM.

In the case of `CCC(C)[C@H](NC(=O)CNC(=O)[C@@H](N)CC(=O)O)C(=O)N[C@@H](Cc1ccccc1)C(=O)N[C@H](C(=O)N[C@@H](CC(=O)O)C(=O)N[C@@H](CO)C(=O)N[C@@H](Cc1ccc(O)cc1)C(=O)N[C@@H](CO)C(=O)N[C@@H](CCCN=C(N)N)C(=O)N[C@@H](Cc1ccc(O)cc1)C(=O)N[C@@H](CCCN=C(N)N)C(=O)N[C@@H](CCCCN)C(=O)N[C@@H](CCC(N)=O)C(=O)N[C@@H](CCSC)C(=O)N[C@@H](C)C(=O)N[C@H](C(=O)N[C@@H](CCCCN)C(=O)N[C@@H](CCCCN)C(=O)N[C@@H](Cc1ccc(O)cc1)C(=O)N[C@@H](CC(C)C)C(=O)N[C@@H](C)C(=O)N[C@@H](C)C(=O)N[C@H](C(=O)N[C@@H](CC(C)C)C(N)=O)C(C)C)C(C)C)[C@@H](C)O` (stereo partly drawn) [PACAP(3-27)] (H-DG[Ile(3ξ)]FTDSYSRYRKQMAVKKYLAAVL-NH2), the affinity corresponds to a Ki of 3000 nM.

On to `CCC(C)[C@H](NC(=O)CNC(=O)[C@H](CC(=O)O)NC(=O)[C@@H](Cc1ccccc1)NC(=O)[C@@H](N)Cc1cnc[nH]1)C(=O)N[C@@H](Cc1ccccc1)C(=O)N[C@H](C(=O)N[C@@H](CC(=O)O)C(=O)N[C@@H](CO)C(=O)N[C@@H](Cc1ccc(O)cc1)C(=O)N[C@@H](CO)C(=O)N[C@@H](CCCN=C(N)N)C(=O)N[C@@H](Cc1ccc(O)cc1)C(=O)N[C@@H](CCCN=C(N)N)C(=O)N[C@@H](CCCCN)C(=O)N[C@@H](CCC(N)=O)C(=O)N[C@@H](CCSC)C(=O)N[C@@H](C)C(=O)N[C@H](C(=O)N[C@@H](CCCCN)C(=O)N[C@@H](CCCCN)C(=O)N[C@@H](Cc1ccc(O)cc1)C(=O)N[C@@H](CC(C)C)C(=O)N[C@@H](C)C(=O)N[C@@H](C)C(=O)N[C@H](C(=O)N[C@@H](CC(C)C)C(=O)NCC(=O)N[C@@H](CCCCN)C(=O)N[C@@H](CCCN=C(N)N)C(=O)N[C@@H](Cc1ccc(O)cc1)C(=O)N[C@@H](CCCCN)C(=O)N[C@@H](CCC(N)=O)C(=O)N[C@@H](CCCN=C(N)N)C(=O)N[C@H](C(=O)N[C@@H](CCCCN)C(=O)N[C@@H](CC(N)=O)C(=O)N[C@@H](CCCCN)C(N)=O)C(C)C)C(C)C)C(C)C)[C@@H](C)O` (stereo partly drawn) [[D-Phe2]PACAP-38] (H-H[dF]DG[Ile(3ξ)]FTDSYSRYRKQMAVKKYLAAVLGKRYKQRVKNK-NH2), for which the Ki stood at 8 nM.
